Measurements as given in patent publication US20100196283A1, “METHOD AND IMAGING MEDIUM FOR USE IN THE METHOD” (priority 2007, published 2010).

Assays:
[1] = Liquid state relaxation (T1 at 9.4 T); format: physicochemical; details: Example 5b
Procedure: (§1) Liquid state polarisation was determined by liquid state ^13C-NMR at 400 MHz to be 14%. The liquid state relaxation (T1 at 9.4 T) was determined to 44 s.

[2] = Liquid state polarisation by liquid state 13C-NMR at 400 MHz; format: physicochemical
Procedure: In a similar way, the level of polarisation for dissolved hyperpolarised ^13C-lactate may be determined by liquid state NMR measurements. Again the signal intensity of the dissolved hyperpolarised ^13C-lactate is compared with the signal intensity of the dissolved ^13C-lactate before polarisation. The level of polarisation is then calculated from the ratio of the signal intensities of ^13C-lactate before and after polarisation.
After 60 min dynamic nuclear polarisation, the frozen polarised composition obtained was dissolved in 6 ml phosphate buffer (20 mM, pH 7.4, 100 mg/l EDTA). The pH of the final solution containing the dissolved composition was 7.4±0.1. The sodium ^13C1-L-lactate concentration in said final solution was 60±2 mM.
Liquid state polarisation was determined by liquid state ^13C-NMR at 400 MHz to be 18-20%.
After an overnight dynamic nuclear polarisation, the frozen polarised composition obtained was dissolved in 6 ml phosphate buffer (40 mM, pH 7.3, osmolality match to 200 mM with NaCl, 100 mg/l EDTA, 1 eq. NaOH). The pH of the final solution containing the dissolved composition was 7.1. The D-lactate concentration in said final solution was 40 mM.
as §1

[3] = T1 relaxation in human full blood at 37° C.; format: physicochemical
Source text: The isotopic enrichment of the hyperpolarised ^13C-lactate used in the method of the invention is preferably at least 75%, more preferably at least 80% and especially preferably at least 90%, an isotopic enrichment of over 90% being most preferred. Ideally, the enrichment is 100%. ^13C-lactate used in the method of the invention may be isotopically enriched at the C1-position (in the following denoted ^13C1-lactate), at the C2-position (in the following denoted ^13C2-lactate), at the C3-position (in the following denoted ^13C3-lactate), at the C1- and the C2-position (in the following denoted ^13C1,2-lactate), at the C1- and the C3-position (in the following denoted ^13C1,3-lactate), at the C2- and the C3-position (in the following denoted ^13C2,3-lactate) or at the C1-, C2- and C3-position (in the following denoted ^13C1,2,3-lactate). Isotopic enrichment at the C1-position is the most preferred since ^13C1-lactate has a higher, i.e. longer T1 relaxation in human full blood at 37° C. than ^13C-lactate which is isotopically enriched at other C-positions.

[4] = Solid state polarisation by solid state 13C-NMR after DNP; format: physicochemical
Source text: The level of polarisation may for instance be determined by solid state ^13C-NMR measurements in solid hyperpolarised ^13C-lactate, e.g. solid hyperpolarised ^13C-lactate obtained by dynamic nuclear polarisation (DNP) of ^13C-lactate. The solid state ^13C-NMR measurement preferably consists of a simple pulse-acquire NMR sequence using a low flip angle. The signal intensity of the hyperpolarised ^13C-lactate in the NMR spectrum is compared with signal intensity of ^13C-lactate in a NMR spectrum acquired before the polarisation process. The level of polarisation is then calculated from the ratio of the signal intensities before and after polarisation.
The probe is inserted into the probe-retaining container, submerged in the liquid helium and irradiated with microwaves. The microwave frequency may be determined from the EPR line of the DNP agent, which depends on the magnetic field of the magnet as 28.0 GHz/T. The optimal microwave frequency may be determined by adjusting the frequency for maximal NMR signal. Preferably, the optimal microwave frequency is in the about 94 GHz for a magnet charged to 3.35 T, 110 GHz for a magnet charged to 4 T, 140 GHz for a magnet charged to 5 T and 200 GHz for a magnet charged to 7 T. The power may be chosen between 50 and 200 mW, dependent on the probe size. The level of polarisation may be monitored as earlier described by for instance acquiring solid state ^13C-NMR signals of the probe during microwave irradiation. Generally, a saturation curve is obtained in a graph showing NMR signal vs. time. […] A solid state ^13C-NMR measurement suitably consists of a simple pulse-acquire NMR sequence using a low flip angle. […] The polarisation is then calculated from the ratio of the signal intensities before and after DNP.
To a micro test tube was added sodium ^13C1-L-lactate solution (78.5 mg, Aldrich, 50% w/w sodium ^13C1-lactate). […] Polarisation was followed by solid state ^13C-NMR and the solid state polarisation was determined to be 20%.

Hep-G2 cells = assay: In vitro 13C-MR spectroscopy in Hep-G2 cells; format: in vitro ADME
Procedure: An imaging medium was prepared as described in Example 1 and 25 μl of the imaging medium (2.7 mM sodium ^13C1-lactate) was mixed into 10 M Hep-G2 cells. A dynamic set of ^13C-MR spectra was acquired every 5 s with a 15 degree RF pulse. ^13C1-pyruvate was clearly building up over time. The average conversion was 0.3% with a peak conversion (0.4%) approximately 20 s into the experiment.

mice (liver) = assay: In vivo 13C-MR spectroscopy in mice (liver); design: species or system C57Bl/6 mouse; details: liver surface coil; 200 μl of about 60 mM imaging medium; 9.4 T
Procedure: 200 μl of an imaging medium which was prepared as described in Example 1 was injected into a C57Bl/6 mouse over a time period of 6 s. The sodium ^13C1-lactate concentration in said imaging medium was about 60 mM. A surface coil (tuned for proton and carbon) was positioned over the liver of the animal and ^13C-MR spectroscopy was carried out in a 9.4 T magnet. A dynamic set of ^13C-MR spectra (in total 20) was acquired every 5 s with a 30 degree RF pulse. Again a significant amount of metabolism was seen including ^13C1-pyruvate (approximately 3% of the ^13C1-lactate signal), followed by ^13C1-alanine (approximately 3.5% of the ^13C1-lactate signal) at a later point of time (FIG. 3).

mice (heart) = assay: In vivo 13C-MR spectroscopy in mice (heart); design: species or system C57Bl/6 mouse; details: heart surface coil; 200 μl of about 60 mM imaging medium; 9.4 T
Procedure: 200 μl of an imaging medium which was prepared as described in Example 1 was injected into a C57Bl/6 mouse over a time period of 6 s. The sodium ^13C1-lactate concentration in said imaging medium was about 60 mM and 2 animals were used in the experiment. A surface coil (tuned for proton and carbon) was positioned over the heart of the animal and ^13C-MR spectroscopy was carried out in a 9.4 T magnet. A dynamic set of ^13C-MR spectra (in total 20) was acquired every 5 s with a 30 degree RF pulse. Again a significant amount of metabolism was seen including ^13C1-pyruvate (approximately 2% of the ^13C1-lactate signal), followed by ^13C1-alanine at a later point of time. ^13C1-bicarbonate (approximately 0.5% of the ^13C1-lactate signal) was observable at a similar peak time as ^13C1-pyruvate (FIG. 5).

mice (whole body) = assay: In vivo 13C-MR spectroscopy in mice (whole body); design: species or system C57Bl/6 mouse
Procedure: 200 μl of an imaging medium which was prepared as described in Example 1 was injected into a C57Bl/6 mouse over a time period of 6 s. The sodium ^13C1-lactate concentration in said imaging medium was 60-90 mM and 3 animals were used in the experiment. A rat size whole body coil (tuned for proton and carbon) was placed over the animal and ^13C-MR spectroscopy was carried out in a 9.4 T magnet. A dynamic set of ^13C-MR spectra (in total 30) was acquired every 3 s with a 15 degree RF pulse. […] The following decay times were calculated from the MR spectra: ^13C1-pyruvate 23 s, ^13C1-alanine 33 s and ^13C1-bicarbonate 24 s.

[5] = 200 μl of 60-90 mM imaging medium injected over 6 s, 9.4 T

C[C@@H](O)C(=O)O [D-lactate]
liquid state relaxation (T1) [1]: 44 s | liquid state polarisation ([2]; Example 5b, overnight DNP of D-lactic acid, dissolved in phosphate buffer with 1 eq. NaOH, 13C-NMR at 400 MHz): 14%

C[C@H](O)[13C](=O)O [^13C1-lactate]
T1 relaxation versus 13C-lactate enriched at other C-positions [3]: longer

C[C@H](O)[13C](=O)[O-].[Na+] [sodium ^13C1-L-lactate]
solid state polarisation ([4]; Example 1a, aqueous trityl radical and Gd-chelate solutions, DNP at 1.2 K, 3.35 T, 94 GHz): 20% | solid state polarisation ([4]; Example 2, water/glycerol mixture (75:25) for trityl and Gd-chelate solutions): 17-20% | solid state polarisation ([4]; Example 3, water/glycerol mixture (50:50) for trityl and Gd-chelate solutions): 25% | peak conversion to 13C1-pyruvate (Hep-G2 cells; 25 μl imaging medium (2.7 mM sodium 13C1-lactate) mixed into 10 M Hep-G2 cells): 0.4% | average conversion to 13C1-pyruvate (Hep-G2 cells; 25 μl imaging medium (2.7 mM sodium 13C1-lactate) mixed into 10 M Hep-G2 cells, spectra every 5 s): 0.3% | time of peak conversion to 13C1-pyruvate (Hep-G2 cells; Hep-G2 cells, time into the experiment): approximately 20 s | 13C1-alanine signal as % of the 13C1-lactate signal (mice (liver)): approximately 3.5% | 13C1-bicarbonate levels observed (mice (liver)): very low levels | 13C1-pyruvate signal as % of the 13C1-lactate signal (mice (liver)): approximately 3% | 13C1-bicarbonate signal as % of the 13C1-lactate signal (mice (heart)): approximately 0.5% | 13C1-pyruvate signal as % of the 13C1-lactate signal (mice (heart)): approximately 2% | liquid state polarisation ([2]; Example 1b, after 60 min DNP, dissolved in 6 ml phosphate buffer pH 7.4, 13C-NMR at 400 MHz): 18-20% | liquid state polarisation ([2]; Example 2, water/glycerol mixture (75:25), dissolved as in Example 1b): 15-20% | liquid state polarisation ([2]; Example 3, water/glycerol mixture (50:50), dissolved as in Example 1b): 25% | 13C1-alanine signal as % of the 13C1-lactate signal (mice (whole body); [5]): approximately 1.5% | 13C1-bicarbonate signal as % of the 13C1-lactate signal (mice (whole body); [5]): approximately 0.5% | 13C1-pyruvate signal as % of the 13C1-lactate signal (mice (whole body); [5]): approximately 2% | decay time of 13C1-alanine signal (mice (whole body); calculated from the MR spectra): 33 s | decay time of 13C1-bicarbonate signal (mice (whole body); calculated from the MR spectra): 24 s | decay time of 13C1-pyruvate signal (mice (whole body); calculated from the MR spectra): 23 s
